In US20070270421A1, “Novel pyridine Derivative and Pyrimidine Derivative (1)” (priority 2004, published 2007) one finds IC50 data, which are given here for 19 molecules.

Where only a bound is given, the exact number is not on record here.

For assay [1], the system named is Human gastric cancer cells (MKN-45). In words: Inhibitory activity against the proliferation of human gastric cancer cells (MKN-45). The class given is cell-based. Particulars: 72 h, MKN-45, 1% FBS RPMI1640, 3 days, Cell Counting Kit-8, read-out: IC50 (concentration necessary to inhibit the cell proliferation by 50%). How it is done: Human gastric cancer cells (MKN-45) were suspended in a 1% FBS-containing RPMI1640 medium (purchased from Sigma). The cell suspension (1×10^4 cells/ml) was added in a 96-well plate for cell culture (purchased from NUNC, Production No. 167008) at 0.1 ml/well, and then cultured in a 5% CO2 incubator (37° C.) overnight. After the culture, each well was supplied with 0.1 ml of a test substance diluted with a 1% FBS-containing RPMI1640 medium, followed by culturing in a 5% CO2 incubator (37° C.) for 3 days. After the culture, each well was supplied with 10 μl of Cell Counting Kit-8 (purchased from DOJINDO, Production No. 343-07623), followed by incubation in a 5% CO2 incubator (37° C.) for about 1.5 hrs. After the incubation, using the Plate Reader MTP-500 (Corona Electric), the absorbance of each well was determined at a measurement wavelength of 450 nm and a reference wavelength of 660 nm. The ratio (%) of absorbance of each well supplied with a test substance to absorbance of the well supplied with no test substance was calculated, and the ratio was used to calculate the concentration (IC50) of the test substance necessary to inhibit the cell proliferation by 50%.

The target in a further assay is T1, HGFR autophosphorylation (Homo sapiens, UniProt P08581).
T1 construct: endogenous in cells; host or cells: MKN-45 human gastric cancer cells
In words: Inhibitory activity against the HGFR autophosphorylation using ELISA. The class given is cell-based. Particulars: MKN-45 cells, 1 hr treatment, read-out: IC50 (concentration necessary to inhibit HGFR autophosphorylation activity by 50%). How it is done:
Human gastric cancer cells (MKN-45) were suspended in a 1% FBS-containing RPMI1640 medium (purchased from Sigma). The cell suspension (1×10^5 cells/ml) was put in a 96-well plate for cell culture (purchased from NUNC, Production No. 167008) at 0.1 ml/well, and then cultured in a 5% CO2 incubator (37° C.) overnight. After the culture, from each well was removed the supernatant solution, followed by adding 0.05 ml of a 1% FBS-containing RPMI1640 medium. Then, the well was supplied with 0.05 ml of the test substance dissolved in dimethyl sulfoxide (diluted with a 1% FBS-containing RPMI1640 medium), followed by culturing in a 5% CO2 incubator (37° C.) for 1 hr. From each well was removed the supernatant, and each well was washed with 150 μl of PBS, followed by adding 100 μl of a lysis buffer (50 mM Hepes (pH 7.4), 150 mM NaCl, 10% (v/v) glycerol, 1% Triton X-100, 1.5 mM MgCl2, 1 mM EDTA (pH 8.0), 100 mM NaF, 1 mM PMSF, 10 μg/ml Aprotinin, 50 μg/ml Leupeptin, 1 μg/ml Pepstatin A and 1 mM Na3VO4). The plate was shaken at 4° C. for 1 hr to prepare the cell extract.
To a 96-well plate for ELISA (purchased from COSTAR, Production No. 3369) was added 50 μl of 60 mM bicarbonate buffer (pH 9.6) containing 50 μg/ml of an anti-phosphotyrosine antibody (PY20, purchased from Transduction Laboratory, Production No. P-11120). The plate was incubated at 4° C. overnight.
Each well of the plate prepared in 2. was washed three times with 200 μl of PBS, and supplied with 150 μl of 3% BSA/PBS, followed by incubating at room temperature for 2 hrs. Each well was washed three times with 200 μl of PBS, and supplied with 50 μl of the above cell extract, followed by incubating at 4° C. overnight. After the incubation, each well was washed three times with 250 μl of a washing solution (0.1% BSA, 20 mM Tris-HCl (pH 7.6), 137 mM NaCl, and 0.05% Tween-20), and supplied with 70 μl of anti-HGFR antibody (h-Met(C-12), purchased from Santa Cruz, Production No. sc-10) 2,000-fold diluted with a reaction solution (1% BSA, 20 mM Tris-HCl (pH 7.6), 137 mM NaCl and 0.05% Tween-20), followed by incubating at room temperature for 1 hr. The well was washed three times with 250 μl of the washing solution, and supplied with 70 μl of peroxidase-labelled anti-rabbit IgG antibody (purchased from Cell Signaling, Production No. 7074) 2,000-fold diluted with the reaction solution, followed by incubating at room temperature for 1 hr. Each well was washed three times with 250 μl of the washing solution, and supplied with 70 μl of TMB Membrane Peroxidase Substrate (purchased from Funakoshi, Production No. 50-5077-03), followed by incubating at room temperature for 10 min. Each well was supplied with 70 μl of 1 M phosphoric acid, and using the Plate Reader MTP-500 (Corona Electric), the absorbance of the well was instantly determined at a measurement wavelength of 450 nm. While defining the absorbance of a well supplied with the cell extract having no test substance as 100% HGFR autophosphorylation activity, and the absorbance of a well supplied with 50 μl of the lysis buffer as 0% HGFR autophosphorylation activity, the HGFR autophosphorylation activity (%) was calculated for each well. The concentration of the test substance was changed by several levels to calculate HGFR autophosphorylation activities (%) in respective cases, and to calculate the concentration (IC50) of the test substance necessary to inhibit HGFR autophosphorylation activity by 50%.

T1 sequence (P08581 25-1390): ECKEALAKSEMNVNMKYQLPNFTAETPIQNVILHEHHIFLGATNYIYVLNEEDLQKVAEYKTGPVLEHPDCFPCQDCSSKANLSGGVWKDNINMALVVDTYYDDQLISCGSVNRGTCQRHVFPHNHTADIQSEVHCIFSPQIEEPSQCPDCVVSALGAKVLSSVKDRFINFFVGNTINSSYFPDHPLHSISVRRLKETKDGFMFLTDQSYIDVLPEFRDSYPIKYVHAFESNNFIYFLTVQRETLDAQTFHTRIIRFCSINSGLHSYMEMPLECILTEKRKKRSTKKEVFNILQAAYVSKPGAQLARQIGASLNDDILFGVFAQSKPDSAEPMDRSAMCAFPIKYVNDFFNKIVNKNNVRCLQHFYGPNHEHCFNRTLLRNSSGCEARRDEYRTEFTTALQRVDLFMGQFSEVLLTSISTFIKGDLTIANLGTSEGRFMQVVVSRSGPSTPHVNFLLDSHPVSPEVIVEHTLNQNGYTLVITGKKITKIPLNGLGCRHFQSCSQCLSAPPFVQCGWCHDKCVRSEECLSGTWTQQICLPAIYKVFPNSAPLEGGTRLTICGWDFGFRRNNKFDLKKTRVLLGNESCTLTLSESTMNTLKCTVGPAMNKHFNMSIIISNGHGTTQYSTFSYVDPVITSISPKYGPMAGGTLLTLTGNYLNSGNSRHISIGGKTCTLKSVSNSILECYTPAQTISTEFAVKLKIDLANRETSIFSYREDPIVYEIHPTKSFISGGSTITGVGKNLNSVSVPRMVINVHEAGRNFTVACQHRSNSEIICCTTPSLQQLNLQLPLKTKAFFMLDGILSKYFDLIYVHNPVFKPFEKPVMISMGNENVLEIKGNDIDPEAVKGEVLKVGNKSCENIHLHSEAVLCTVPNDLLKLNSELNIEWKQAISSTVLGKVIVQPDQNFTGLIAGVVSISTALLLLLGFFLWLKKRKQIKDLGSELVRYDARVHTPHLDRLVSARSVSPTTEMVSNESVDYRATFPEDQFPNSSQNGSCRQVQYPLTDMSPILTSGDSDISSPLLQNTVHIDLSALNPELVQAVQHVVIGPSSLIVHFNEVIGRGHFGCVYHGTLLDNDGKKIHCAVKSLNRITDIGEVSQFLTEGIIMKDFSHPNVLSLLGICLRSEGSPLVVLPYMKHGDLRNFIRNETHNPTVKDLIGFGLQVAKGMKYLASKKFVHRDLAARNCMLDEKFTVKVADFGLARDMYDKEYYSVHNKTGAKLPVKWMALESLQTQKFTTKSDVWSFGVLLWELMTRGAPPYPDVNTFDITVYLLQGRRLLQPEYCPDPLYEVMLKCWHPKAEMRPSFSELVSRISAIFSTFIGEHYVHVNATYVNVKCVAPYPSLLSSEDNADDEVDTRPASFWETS

In the case of `O=C(Cc1ccc(F)cc1)NC(=S)Nc1ccc(Oc2cc(NC(=O)N3CCCC3)ncn2)c(F)c1` [Example 3, Pyrrolidine-1-carboxylic acid [6-(2-fluoro-4-{3-[2-(4-fluorophenyl)acetyl]thioureido}phenoxy)pyrimidin-4-yl]amide], the values for the IC50 (in assay [1]; on HGFR autophosphorylation) were 40 nM and 20 nM, respectively.

Consider `O=C(Cc1ccc(F)cc1)NC(=S)Nc1ccc(Oc2ccnc(NC(=O)N3CCCC3)c2)cc1` [Example 9, Pyrrolidine-1-carboxylic acid [4-(4-{3-[2-(4-fluorophenyl)acetyl]thioureido}phenoxy)pyridin-2-yl]amide], for which the IC50 in assay [1] stood at 33 nM; at HGFR autophosphorylation, 20 nM.

On to `O=C(Cc1ccccc1)NC(=S)Nc1ccc(Oc2ccnc(NC(=O)N3CCOCC3)c2)c(Cl)c1` [Example 11, 4-{2-Chloro-4-[3-(2-phenylacetyl)thioureido]phenoxy}-2-[(morpholin-4-yl)carbonylamino]pyridine], for which the IC50 in assay [1] came out at 180 nM; at HGFR autophosphorylation it was 43 nM.

For `O=C(Cc1ccc(F)cc1)NC(=S)Nc1ccc(Oc2ccnc(NC(=O)N3CCCC3)c2)c(F)c1` [Example 13, 4-(2-Fluoro-4-{3-[2-(4-fluorophenyl)acetyl]thioureido}phenoxy)-2-[(pyrrolidin-1-yl)carbonylamino]pyridine], the IC50 turned out to be 23 nM in assay [1] and 6.8 nM on HGFR autophosphorylation.

In the case of `O=C(Cc1ccccc1)NC(=S)Nc1ccc(Oc2ccnc(NC(=O)N3CCC(O)CC3)c2)c(F)c1` [Example 15, 4-{2-Fluoro-4-[3-(2-phenylacetyl)thioureido]phenoxy}-2-[(4-hydroxypiperidin-1-yl)carbonylamino]pyridine], the values for the IC50 (in assay [1]; on HGFR autophosphorylation) were 48 nM and 13 nM, respectively.

On to `CN(C)C(=O)Nc1cc(Oc2ccc(NC(=S)NC(=O)CC3CC4CCC3C4)cc2F)ccn1` (centres unmarked) [Example 17, 2-[(Dimethylamino)carbonylamino]-4-{2-fluoro-4-[3-(2-norbornaneacetylthio)ureido]phenoxy}pyridine], for which the IC50 came to 570 nM in assay [1] and 120 nM on HGFR autophosphorylation.

For `CCN(CC)CCCN(C)C(=O)Nc1cc(Oc2ccc(NC(=S)NC(=O)Cc3ccc(F)cc3)cc2F)ccn1` [Example 22, 1-(3-Diethylaminopropyl)-3-[4-(2-fluoro-4-{3-[2-(4-fluorophenyl)acetyl]thioureido}phenoxy)pyridin-2-yl]-1-methylurea], the values for the IC50 (in assay [1]; on HGFR autophosphorylation) were 33 nM and less than 30 nM, respectively.

On to `Cc1cc(NC(=S)NC(=O)Cc2ccc(F)cc2)ccc1Oc1ccnc(NC(=O)N2CCOCC2)c1` [Example 24, Morpholine-4-carboxylic acid (4-{2-methyl-4-[3-(4-fluorophenyl)acetylthioureido]phenoxy}pyridin-2-yl)amide], for which the IC50 in assay [1] came out at 180 nM; at HGFR autophosphorylation, 69 nM.

Turning to `CN1CCC(N(C)C(=O)Nc2cc(Oc3ccc(NC(=S)NC(=O)Cc4ccccc4)cc3F)ccn2)CC1` [Example 28, 3-{4-[2-Fluoro-4-(3-phenylacetylthioureido)phenoxy]pyridin-2-yl}-1-methyl-1-(1-methylpiperidin-4-yl)urea], the IC50 came to 5.8 nM in assay [1] and 19 nM at HGFR autophosphorylation.

As to `O=C(Cc1ccccc1)NC(=O)Nc1ccc(Oc2ccnc(NC(=O)N3CCCC3)c2)c(F)c1` [Example 43, 4-{2-Fluoro-4-[3-(2-phenylacetyl)ureido]phenoxy}-2-[(pyrrolidin-1-yl)carbonylamino]pyridine], the IC50 came out at 35 nM in assay [1] and 59 nM on HGFR autophosphorylation.

Turning to `CN(C)C(=O)Nc1cc(Oc2ccc(NC(=O)NC(=O)Cc3ccccc3)cc2F)ccn1` [Example 44, 2-[(Dimethylamino)carbonylamino]-4-{2-fluoro-4-[3-(2-phenylacetyl)ureido]phenoxy}pyridine], the IC50 came to 64 nM in assay [1] and 350 nM at HGFR autophosphorylation.

For `O=C(Cc1ccccc1)NC(=O)Nc1ccc(Oc2ccnc(NC(=O)N3CCC(N4CCCC4)CC3)c2)c(F)c1` [Example 45, 4-{2-Fluoro-4-[3-(2-phenylacetyl)ureido]phenoxy}-2-{[4-(pyrrolidin-1-yl)piperidin-1-yl]carbonylamino}pyridine], the IC50 was determined as 140 nM in assay [1] and 350 nM at HGFR autophosphorylation.

On to `O=C(Cc1ccccc1)NC(=O)Nc1ccc(Oc2ccnc(NC(=O)N3CCOCC3)c2)c(F)c1` [Example 48, Morpholine-4-carboxylic acid {4-[2-fluoro-4-(3-phenylacetylureido)phenoxy]pyridin-2-yl}amide], for which the values for the IC50 (in assay [1]; on HGFR autophosphorylation) were 57 nM and 260 nM, respectively.

As for `CN1CCN(C(=O)Nc2cc(Oc3ccc(NC(=O)NC(=O)Cc4ccccc4)cc3F)ccn2)CC1` [Example 50, 4-Methylpiperazine-1-carboxylic acid {4-[2-fluoro-4-(3-phenylacetylureido)phenoxy]pyridin-2-yl}amide], the IC50 in assay [1] stood at 160 nM; at HGFR autophosphorylation it was 280 nM.

Take `CN1CCC(N(C)C(=O)Nc2cc(Oc3ccc(NC(=O)NC(=O)Cc4ccccc4)cc3F)ccn2)CC1` [Example 52, 3-{4-[2-Fluoro-4-(3-phenylacetylureido)phenoxy]pyridin-2-yl]-1-methyl-1-(1-methylpiperidin-4-yl)urea]: the IC50 was 63 nM in assay [1] and 340 nM on HGFR autophosphorylation.

In the case of `O=C(CC(=O)Nc1ccc(Oc2ccnc(NC(=O)N3CCCC3)c2)c(F)c1)Nc1ccc(F)cc1` [Example 56, N-(4-Fluorophenyl)-N′-(3-fluoro-4-{2-[(pyrrolidine-1-carbonyl)amino]pyridin-4-yloxy}phenyl)malonamide], the IC50 amounted to 140 nM in assay [1] and 130 nM at HGFR autophosphorylation.

Regarding `O=C(CC(=O)Nc1ccc(Oc2ccnc(NC(=O)C3CC3)c2)cc1F)Nc1ccc(F)cc1` [Example 77, N-(4-Fluorophenyl)-N′-{4-[2-(cyclopropanecarbonylamino)pyridin-4-yloxy]-2-fluorophenyl}malonamide], the IC50 (in assay [1]; on HGFR autophosphorylation) was 110 nM in each case.

On to `O=C(CC(=O)Nc1ccc(Oc2ccnc(NC(=O)N3CCC(N4CCCC4)CC3)c2)cc1F)Nc1ccc(F)cc1` [Example 82, N-(4-Fluorophenyl)-N′-[2-fluoro-4-(2-{[4-(pyrrolidin-1-yl)piperidine-1-carbonyl]amino}pyridin-4-yloxy)phenyl]malonamide], for which the figures for the IC50 (in assay [1]; on HGFR autophosphorylation) were 120 nM and 88 nM, respectively.

Take `Cc1cc(Oc2ccnc(NC(=O)N3CCC(N4CCCC4)CC3)c2)ccc1NC(=O)CC(=O)Nc1ccc(F)cc1` [Example 85, N-(4-Fluorophenyl)-N′-[2-methyl-4-(2-{[(4-pyrrolidin-1-yl)piperidine-1-carbonyl]amino}pyridin-4-yloxy)phenyl]malonamide]: the IC50 came to 630 nM in assay [1] and 590 nM at HGFR autophosphorylation.
